The values below are quoted from earlier work in paper PMC11123921, “Synthesis and Evaluation of 5-(Heteroarylmethylene)hydantoins as Glycogen Synthase Kinase-3β Inhibitors” (Pharmaceuticals, 2024).

For one series, the target named is GSK-3β (Homo sapiens, UniProt P49841). The conditions noted are these: cited from earlier work.
In a further series the test system is cancer migration. Set-up: method as in PMID 20869139. The note with it: cited from earlier work.

Sequence of GSK-3β (P49841 whole entry): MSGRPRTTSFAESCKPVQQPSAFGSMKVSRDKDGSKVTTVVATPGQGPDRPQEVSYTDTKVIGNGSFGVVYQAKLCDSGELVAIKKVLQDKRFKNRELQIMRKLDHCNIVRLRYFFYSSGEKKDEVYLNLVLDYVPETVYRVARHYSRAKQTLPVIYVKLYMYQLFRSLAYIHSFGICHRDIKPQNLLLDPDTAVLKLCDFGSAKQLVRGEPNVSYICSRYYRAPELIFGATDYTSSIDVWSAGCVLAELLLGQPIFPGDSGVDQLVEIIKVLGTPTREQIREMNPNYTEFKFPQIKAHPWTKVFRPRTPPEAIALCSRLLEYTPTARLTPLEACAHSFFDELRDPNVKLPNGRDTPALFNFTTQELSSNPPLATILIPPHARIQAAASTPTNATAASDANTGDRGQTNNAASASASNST

Turning to indirubin-3-monoxime, at GSK-3β, the half-maximal inhibitory concentration (IC50) is 22 nM. On to `O=C1NC(=O)/C(=C/c2cccc(-c3cccs3)n2)N1` [Compound 16], for which the “activity as cancer migration inhibitors” value in the series with cancer migration is “notable activity”.

A word on the IC50: it is the point on the concentration scale where inhibition reaches its midpoint.
